Results on two substances are retold here after patent publication US20100221341A1, “Alanine-Based Peptide Hydrogels” (Drexel University, priority 2009, published 2010).

Ends that are not written are not given here.

Holding throughout (type): physicochemical
A short description of data set [1]: UV-CD kinetics after dissolution in D2O, read at 198 nm and 215 nm. Here is the method: (§1) The Raman spectra were obtained with the 442 nm (40 mW) excitation from a HeCd laser (Model IK 4601R-E, Kommon Electrics, USA) and recorded with a RM 100 Remishaw confocal microscope. The UV ECD spectra in the wavelength range of 180-250 nm of peptides were measured with a JASCO J-810 spectrapolarimeter in a 0.1 mm quartz cell with 0.05 nm resolution. Samples were placed in a nitrogen purged JASCO CD module. The temperature at the cuvette was controlled by means of a Peltier-type heating system (accuracy ±1° C.) set to 20° C. The spectra were obtained by averaging ten scans and were collected as ellipticity as a function of wavelength, and converted to units of molar absorptivities via the equation: […]
The UV-CD spectra of Ac-(AAKA)4-NH2 was acquired at various times after dissolution in deuterated water (D2O). The results are illustrated in FIG. 4. Initially a significant percentage of β-structure was observed, and in a time-dependent manner more flexible PPII-like conformations were observed.
The UV-CD kinetics of Ac-(AAKA)4-NH2, in terms of the readings at 198 nm and 215 nm as a function of time, were monitored. The results are illustrated in FIG. 5. The plots were fit to bi-exponential functions, reflecting a fast phase (˜18 minutes) and a slow phase (>300 minutes). The fast phase may reflect the kinetics of hydration/dissolution of the peptide. […]

The nature of data set [2]: Temperature-dependent UV-CD spectra. The settings on record: 3.5 mM in D2O, pH 2.7; intersection of two fitted straight lines. Here is the method:
as §1
The temperature-dependent UV-CD spectra of 3.5 mM Ac-(AAKA)4-NH2 measured at acid pH is illustrated in FIG. 8. […] The inset of FIG. 8 illustrates the change of the Δε measured at 214.5 nm as a function of temperature, reflecting the decrease of the β-sheet content with increasing temperature.
Two different modes were found in the relationship between the n-sheet content and temperature. The β-sheet content, as evaluated by Δε, […] linearly with temperatures below 300 K and remained almost constant after 350 K. The transition temperature between these two modes was around 320 K, as is defined by the intersection between the two straight lines, fitting the initial and final behaviors.

A further data set can be described thus: Hydrogel formation. Here is the method:
For the FT-IR (Fourier transform infrared), CD (circular dichroism), and Raman measurements of Ac-(AAKA)4-NH2, unless otherwise described, the peptide was dissolved in acidic D2O (pD=1.4) at a concentration of ˜15 mg/mL (˜10.5 mM), where the D2O was made acidic by the addition of DCl (Sigma-Aldrich). […] The measurements for the gelated state of the 12-mer, Ac-(AAKA)3-NH2, were carried out similarly, at a concentration of ˜27 mg/mL in D2O (pD=1.4). For the ECD measurements, Ac-(AAKA)3-NH2 and (AAKA)4 were dissolved in acidic D2O at concentrations of 2.4 mg/mL and 1 mg/mL, respectively, and the samples were measured at room temperature.
NaCl was added to a freshly aqueous solution of (AAKA)4, wherein the concentration of peptide was equal to or higher than 0.5 wt %. […] An example of such hydrogel is illustrated in FIG. 15.

A short description of data set [3]: Rheology (viscosity) of peptide solutions with NaCl. Here is the method: Rheology measurements were made for solutions of (AAKA)4 (concentration of 5 mg/mL or 3.5 mM) in 0.5 M and 1.0 M NaCl, as shown in FIG. 16. […] The shear-thinning behavior observed in these experiments was consistent with other oligopeptides hydrogels (Schneider, […], J. Am. Chem. Soc. 124:15030).
Another rheology experiment is illustrated in FIG. 17, for a solution of (AAKA)4 (concentration of 5 mg/mL) in 0.0 M, 1.0 M and 2.0 M NaCl. FIG. 17 illustrates three experimental curves for each concentration of NaCl.
Yet another rheology experiment is illustrated in FIG. 18, for a 5 mg/mL and a 10 mg/mL solution of (AAKA)4 in 1 M NaCl. FIG. 18 illustrates three experimental curves for each value of concentration of peptide.
As illustrated above, (AAKA)4 was conformationally unstable upon dissolution in water, prior to the addition of salt and consequent hydrogel formation. […] This is illustrated in FIG. 19, where the viscosity of a 5 mg/mL (AAKA)4 solution comprising 2 M NaCl was compared with the viscosity of a similar peptide solution wherein NaCl was added after ˜24 hours.

For “Ac-AAKAAAKAAAKAAAKA-NH2 [Ac-(AAKA)4-NH2]”, in data set [1], the “fast phase of UV-CD kinetics (bi-exponential fit)” value is approximately 18 min and the “slow phase of UV-CD kinetics (bi-exponential fit)” value is more than 300 min. In addition, the “transition temperature of β-sheet content (Δε at 214.5 nm)” value in data set [2] is on record as “around 320 K”. For the same substance, the “hydrogel formation after dissolution” value in the data set “Hydrogel formation” (~15 mg/mL (~10.5 mM) in acidic D2O, pD 1.4) is reported as “formed a hydrogel shortly after dissolution”.
Consider AAKAAAKAAAKAAAKA [(AAKA)4], for which the “hydrogel formation on addition of NaCl” value in the data set “Hydrogel formation” (1-year-old sample, 5 mg/mL (3.5 mM)) is recorded as “did not result in hydrogel formation”; in the data set “Hydrogel formation” (fresh aqueous solution, peptide equal to or higher than 0.5 wt %, final NaCl higher than 1.0 M) it was “rigid self-supporting hydrogel”. For the same substance, the “viscosity as a function of peptide and NaCl concentration” value in data set [3] (5 mg/mL (3.5 mM) in 0.5 M and 1.0 M NaCl) is listed as “more viscous gels”. Besides, the “viscosity of hydrogel when salt is added with delay” value in data set [3] (5 mg/mL, 2 M NaCl added after ~24 hours, versus NaCl added at time zero) is “much less viscous and rigid hydrogel”.
